From paper PMC12102759 (Protein Science : A Publication of the Protein Society, 2025)
Where two headings read alike, the source gives them in different places.

Tested on: G3BP1 NFT2
Type: binding, human
Conditions: library DMS-CoV, bait G3BP1 NFT2, prey N, listed as aa = residue placed at this position, column sums to 1

## RNAPRITFGGPSDSTG S12H (RNAPRITFGGPHDSTG)
Peptide RNAPRITFGGPSDSTG
  DMS PSSM value, S (position 12): 0

## APRITFGGPSDSTGSN R3H (APHITFGGPSDSTGSN)
Peptide APRITFGGPSDSTGSN
  DMS PSSM value, R (position 3): 0.008447

## APRITFGGPSDSTGSN G8P (APRITFGPPSDSTGSN)
Peptide APRITFGGPSDSTGSN
  DMS PSSM value, G (position 8): 0.001619

## RNAPRITFGGPSDSTG S14P (RNAPRITFGGPSDPTG)
Peptide RNAPRITFGGPSDSTG
  DMS PSSM value, S (position 14): 0

## APRITFGGPSDSTGSN R3S (APSITFGGPSDSTGSN)
Peptide APRITFGGPSDSTGSN
  DMS PSSM value, R (position 3): 0.004779

## RNAPRITFGGPSDSTG S12E (RNAPRITFGGPEDSTG)
Peptide RNAPRITFGGPSDSTG
  DMS PSSM value, S (position 12): 0.6084

## RNAPRITFGGPSDSTG G10H (RNAPRITFGHPSDSTG)
Peptide RNAPRITFGGPSDSTG
  DMS PSSM value, G (position 10): 0

## APRITFGGPSDSTGSN S12I (APRITFGGPSDITGSN)
Peptide APRITFGGPSDSTGSN
  DMS PSSM value, S (position 12): 0.4295

## RNAPRITFGGPSDSTG P11L (RNAPRITFGGLSDSTG)
Peptide RNAPRITFGGPSDSTG
  DMS PSSM value, P (position 11): 0

## RNAPRITFGGPSDSTG I6W (RNAPRWTFGGPSDSTG)
Peptide RNAPRITFGGPSDSTG
  DMS PSSM value, I (position 6): 0

## RNAPRITFGGPSDSTG I6N (RNAPRNTFGGPSDSTG)
Peptide RNAPRITFGGPSDSTG
  DMS PSSM value, I (position 6): 0

## RNAPRITFGGPSDSTG N2R (RRAPRITFGGPSDSTG)
Peptide RNAPRITFGGPSDSTG
  DMS PSSM value, N (position 2): 0

## APRITFGGPSDSTGSN I4K (APRKTFGGPSDSTGSN)
Peptide APRITFGGPSDSTGSN
  DMS PSSM value, I (position 4): 0

## RNAPRITFGGPSDSTG S12Q (RNAPRITFGGPQDSTG)
Peptide RNAPRITFGGPSDSTG
  DMS PSSM value, S (position 12): 0

## APRITFGGPSDSTGSN G8L (APRITFGLPSDSTGSN)
Peptide APRITFGGPSDSTGSN
  DMS PSSM value, G (position 8): 0.0001736

## RNAPRITFGGPSDSTG T15D (RNAPRITFGGPSDSDG)
Peptide RNAPRITFGGPSDSTG
  DMS PSSM value, T (position 15): 0

## RNAPRITFGGPSDSTG A3Y (RNYPRITFGGPSDSTG)
Peptide RNAPRITFGGPSDSTG
  DMS PSSM value, A (position 3): 0

## APRITFGGPSDSTGSN S15W (APRITFGGPSDSTGWN)
Peptide APRITFGGPSDSTGSN
  DMS PSSM value, S (position 15): 0.00112

## RNAPRITFGGPSDSTG T7E (RNAPRIEFGGPSDSTG)
Peptide RNAPRITFGGPSDSTG
  DMS PSSM value, T (position 7): 1

## APRITFGGPSDSTGSN G8Y (APRITFGYPSDSTGSN)
Peptide APRITFGGPSDSTGSN
  DMS PSSM value, G (position 8): 0.02437

## APRITFGGPSDSTGSN F6K (APRITKGGPSDSTGSN)
Peptide APRITFGGPSDSTGSN
  DMS PSSM value, F (position 6): 0

## RNAPRITFGGPSDSTG T7S (RNAPRISFGGPSDSTG)
Peptide RNAPRITFGGPSDSTG
  DMS PSSM value, T (position 7): 0

## APRITFGGPSDSTGSN G14F (APRITFGGPSDSTFSN)
Peptide APRITFGGPSDSTGSN
  DMS PSSM value, G (position 14): 0.04037

## RNAPRITFGGPSDSTG G16D (RNAPRITFGGPSDSTD)
Peptide RNAPRITFGGPSDSTG
  DMS PSSM value, G (position 16): 0

## APRITFGGPSDSTGSN D11R (APRITFGGPSRSTGSN)
Peptide APRITFGGPSDSTGSN
  DMS PSSM value, D (position 11): 0

## APRITFGGPSDSTGSN S12L (APRITFGGPSDLTGSN)
Peptide APRITFGGPSDSTGSN
  DMS PSSM value, S (position 12): 0.001118

## APRITFGGPSDSTGSN F6L (APRITLGGPSDSTGSN)
Peptide APRITFGGPSDSTGSN
  DMS PSSM value, F (position 6): 0.004454

## RNAPRITFGGPSDSTG I6Q (RNAPRQTFGGPSDSTG)
Peptide RNAPRITFGGPSDSTG
  DMS PSSM value, I (position 6): 0

## RNAPRITFGGPSDSTG P4N (RNANRITFGGPSDSTG)
Peptide RNAPRITFGGPSDSTG
  DMS PSSM value, P (position 4): 0

## RNAPRITFGGPSDSTG G16M (RNAPRITFGGPSDSTM)
Peptide RNAPRITFGGPSDSTG
  DMS PSSM value, G (position 16): 0

## RNAPRITFGGPSDSTG G9P (RNAPRITFPGPSDSTG)
Peptide RNAPRITFGGPSDSTG
  DMS PSSM value, G (position 9): 0

## RNAPRITFGGPSDSTG T7R (RNAPRIRFGGPSDSTG)
Peptide RNAPRITFGGPSDSTG
  DMS PSSM value, T (position 7): 0

## APRITFGGPSDSTGSN A1E (EPRITFGGPSDSTGSN)
Peptide APRITFGGPSDSTGSN
  DMS PSSM value, A (position 1): 0.1097

## APRITFGGPSDSTGSN S12E (APRITFGGPSDETGSN)
Peptide APRITFGGPSDSTGSN
  DMS PSSM value, S (position 12): 0.0009188

## RNAPRITFGGPSDSTG P11S (RNAPRITFGGSSDSTG)
Peptide RNAPRITFGGPSDSTG
  DMS PSSM value, P (position 11): 0

## APRITFGGPSDSTGSN S12D (APRITFGGPSDDTGSN)
Peptide APRITFGGPSDSTGSN
  DMS PSSM value, S (position 12): 0

## RNAPRITFGGPSDSTG F8S (RNAPRITSGGPSDSTG)
Peptide RNAPRITFGGPSDSTG
  DMS PSSM value, F (position 8): 0

## APRITFGGPSDSTGSN A1G (GPRITFGGPSDSTGSN)
Peptide APRITFGGPSDSTGSN
  DMS PSSM value, A (position 1): 0.004858

## APRITFGGPSDSTGSN S12V (APRITFGGPSDVTGSN)
Peptide APRITFGGPSDSTGSN
  DMS PSSM value, S (position 12): 0.04482

## APRITFGGPSDSTGSN D11Y (APRITFGGPSYSTGSN)
Peptide APRITFGGPSDSTGSN
  DMS PSSM value, D (position 11): 0.02603

## RNAPRITFGGPSDSTG T15W (RNAPRITFGGPSDSWG)
Peptide RNAPRITFGGPSDSTG
  DMS PSSM value, T (position 15): 0

## RNAPRITFGGPSDSTG D13T (RNAPRITFGGPSTSTG)
Peptide RNAPRITFGGPSDSTG
  DMS PSSM value, D (position 13): 0

## APRITFGGPSDSTGSN D11K (APRITFGGPSKSTGSN)
Peptide APRITFGGPSDSTGSN
  DMS PSSM value, D (position 11): 0

## APRITFGGPSDSTGSN F6N (APRITNGGPSDSTGSN)
Peptide APRITFGGPSDSTGSN
  DMS PSSM value, F (position 6): 0

## APRITFGGPSDSTGSN G7E (APRITFEGPSDSTGSN)
Peptide APRITFGGPSDSTGSN
  DMS PSSM value, G (position 7): 0.08457

## APRITFGGPSDSTGSN A1N (NPRITFGGPSDSTGSN)
Peptide APRITFGGPSDSTGSN
  DMS PSSM value, A (position 1): 0.016

## APRITFGGPSDSTGSN R3Q (APQITFGGPSDSTGSN)
Peptide APRITFGGPSDSTGSN
  DMS PSSM value, R (position 3): 0.006747

## RNAPRITFGGPSDSTG G10D (RNAPRITFGDPSDSTG)
Peptide RNAPRITFGGPSDSTG
  DMS PSSM value, G (position 10): 0

## RNAPRITFGGPSDSTG A3S (RNSPRITFGGPSDSTG)
Peptide RNAPRITFGGPSDSTG
  DMS PSSM value, A (position 3): 0

## RNAPRITFGGPSDSTG G10Y (RNAPRITFGYPSDSTG)
Peptide RNAPRITFGGPSDSTG
  DMS PSSM value, G (position 10): 0

## RNAPRITFGGPSDSTG G9F (RNAPRITFFGPSDSTG)
Peptide RNAPRITFGGPSDSTG
  DMS PSSM value, G (position 9): 0

## RNAPRITFGGPSDSTG D13W (RNAPRITFGGPSWSTG)
Peptide RNAPRITFGGPSDSTG
  DMS PSSM value, D (position 13): 0

## APRITFGGPSDSTGSN P2Q (AQRITFGGPSDSTGSN)
Peptide APRITFGGPSDSTGSN
  DMS PSSM value, P (position 2): 0.0005858

## RNAPRITFGGPSDSTG N2G (RGAPRITFGGPSDSTG)
Peptide RNAPRITFGGPSDSTG
  DMS PSSM value, N (position 2): 0

## APRITFGGPSDSTGSN I4N (APRNTFGGPSDSTGSN)
Peptide APRITFGGPSDSTGSN
  DMS PSSM value, I (position 4): 0

## RNAPRITFGGPSDSTG S14R (RNAPRITFGGPSDRTG)
Peptide RNAPRITFGGPSDSTG
  DMS PSSM value, S (position 14): 0

## APRITFGGPSDSTGSN T5G (APRIGFGGPSDSTGSN)
Peptide APRITFGGPSDSTGSN
  DMS PSSM value, T (position 5): 0

## APRITFGGPSDSTGSN G7M (APRITFMGPSDSTGSN)
Peptide APRITFGGPSDSTGSN
  DMS PSSM value, G (position 7): 0

## APRITFGGPSDSTGSN G7H (APRITFHGPSDSTGSN)
Peptide APRITFGGPSDSTGSN
  DMS PSSM value, G (position 7): 0

## RNAPRITFGGPSDSTG A3W (RNWPRITFGGPSDSTG)
Peptide RNAPRITFGGPSDSTG
  DMS PSSM value, A (position 3): 0

## APRITFGGPSDSTGSN R3W (APWITFGGPSDSTGSN)
Peptide APRITFGGPSDSTGSN
  DMS PSSM value, R (position 3): 0.01451

## RNAPRITFGGPSDSTG G16Q (RNAPRITFGGPSDSTQ)
Peptide RNAPRITFGGPSDSTG
  DMS PSSM value, G (position 16): 0

## RNAPRITFGGPSDSTG I6P (RNAPRPTFGGPSDSTG)
Peptide RNAPRITFGGPSDSTG
  DMS PSSM value, I (position 6): 0

## APRITFGGPSDSTGSN S10W (APRITFGGPWDSTGSN)
Peptide APRITFGGPSDSTGSN
  DMS PSSM value, S (position 10): 0

## APRITFGGPSDSTGSN A1V (VPRITFGGPSDSTGSN)
Peptide APRITFGGPSDSTGSN
  DMS PSSM value, A (position 1): 0.004383

## APRITFGGPSDSTGSN R3E (APEITFGGPSDSTGSN)
Peptide APRITFGGPSDSTGSN
  DMS PSSM value, R (position 3): 0.01584

## RNAPRITFGGPSDSTG G16N (RNAPRITFGGPSDSTN)
Peptide RNAPRITFGGPSDSTG
  DMS PSSM value, G (position 16): 1
